# Where two headings read alike, the source gives them in different places.
# Tests used:
# HT29 colon xenografts = experiment: Single dose anti-tumor activity, HT29 colon xenograft; type: in vivo; details: HT-29
# Description: Female NCr nude mice were injected intravenously via the lateral tail vein on day 12 post-tumor-implantation with saline (♦), NVB at 30.0 mg/kg (◯) and 25.5 mg/kg (□), or NVB-TCS at 15.0 mg/kg (●) and 11.0 mg/kg (▪) at a drug-to-lipid ratio of 0.3:1 (w/w). The arrow on the x-axis denotes the day of drug administration. Data points represent mean±SEM (n=7). […]
# Tumor models investigated included RXF393 (renal), MX-1 (breast), LX-1 (small cell lung cancer), PC-3 (prostate), and HT29 (colon). These models were known to be sensitive to vinorelbine. Tumor fragments were implanted subcutaneously in the flank of NCr nu/nu mice. […] Animal weights and tumor size were determined twice weekly.
# [1] = Maximum tolerable dose (MTD) of free and liposomal vinorelbine; type: in vivo, nude and ICR mice
# [2] = mice; cited from earlier work
# [3] = for DRD: ICR
# Description: Single and multiple (q7dx3) dose MTD studies were performed in tumor-bearing and non-tumor bearing NCr nu/nu mice, as well as healthy, outbred ICR mice.
# A comparative (VRL vs. liposomal VRL) toxicity study was performed in healthy, outbred ICR mice.
# Parameters evaluated throughout the study included animal weight loss, physical appearance and behavioral changes, blood analysis (CBC and serum chemistry panel), hematopoietic progenitor cell levels in femur bone marrow, and organ weights and gross pathology. Tissues were collected and stored for histology as required.
smiles,measurement,setting,value
"CCC1=C[C@@H]2CN(C1)Cc1c([nH]c3ccccc13)[C@@](C(=O)OC)(c1cc3c(cc1OC)N(C)[C@H]1[C@@](O)(C(=O)OC)[C@H](OC(C)=O)[C@]4(CC)C=CCN5CC[C@]31[C@@H]54)C2 [VRL, 5′-noranhydrovinblastine]",% T/C (optimal % T/C following final treatment),HT29 colon xenografts; single i.v. dose 25.5 mg/kg,35%
same,DRD (drug related deaths),HT29 colon xenografts; single i.v. dose 25.5 mg/kg,0/7
same,MWL (maximum mean weight loss per treatment group),HT29 colon xenografts; single i.v. dose 25.5 mg/kg,−9.8
same,NCI Score,HT29 colon xenografts; single i.v. dose 25.5 mg/kg,1
same,T-C (tumor growth delay to 1000 mm^3),HT29 colon xenografts; single i.v. dose 25.5 mg/kg,12
same,TF (tumor free animals at the end of study),HT29 colon xenografts; single i.v. dose 25.5 mg/kg,1/7
same,% T/C (optimal % T/C following final treatment),HT29 colon xenografts; single i.v. dose 30 mg/kg,31%
same,DRD (drug related deaths),HT29 colon xenografts; single i.v. dose 30 mg/kg,0/7
same,MWL (maximum mean weight loss per treatment group),HT29 colon xenografts; single i.v. dose 30 mg/kg,−9.3
same,NCI Score,HT29 colon xenografts; single i.v. dose 30 mg/kg,1
same,T-C (tumor growth delay to 1000 mm^3),HT29 colon xenografts; single i.v. dose 30 mg/kg,9
same,TF (tumor free animals at the end of study),HT29 colon xenografts; single i.v. dose 30 mg/kg,1/7
same,MTD,"[1]; NCr nu/nu and ICR, mouse, in vivo, intravenous, q7dx3 dose schedule, estimated, read-out: maximum tolerated dose (MTD)",25 to 30 mg/kg
same,MTD,"[1]; NCr nu/nu and ICR, mouse, in vivo, single dose, estimated, read-out: maximum tolerated dose (MTD)",30 mg/kg
same,MTD,[1]; given intravenously on a q7dx3 schedule,27.5 mg/kg/dose
same,MTD used in the calculation of therapeutic index (TI),"[1]; q7dx3, derived from Table 5",27.5 mg/kg
same,published LD50,[2],34 mg/kg
same,DRD,[3]; 5 mg/kg q7d x 3,0/15
same,DRD,[3]; 10 mg/kg q7d x 3,0/15
same,DRD,[3]; 20 mg/kg q7d x 3,0/15
same,DRD,[3]; 25 mg/kg q7d x 3,1/15
same,Granulocytopenia,"[3]; mouse, in vivo",significant
same,neutrophil population,"[3]; mouse, in vivo",almost completely abolished
same,spleen weights,"[3]; mouse, in vivo",Decreased spleen weights
same,Max % Wt Loss,"[3]; mouse, in vivo, 5 mg/kg",+
same,Max % Wt Loss,"[3]; mouse, in vivo, 10 mg/kg",−3%
same,Max % Wt Loss,"[3]; mouse, in vivo, 20 mg/kg",−3%
same,Max % Wt Loss,"[3]; mouse, in vivo, 25 mg/kg",−5%

# Reference: US20040071768A1, “Compositions and methods for treating cancer” (Inex Pharmaceuticals Corporation, priority 1999, published 2004)
